One series is described as follows: Hygroscopic property. The series is classed as physicochemical.
A short description of series [1]: Acute toxicity of NaOGe in rats. The series is classed as in vivo, Rats (Wistar strain). The following applies: rat, in vivo, po; per os, male. The source says: (§1) Acute Toxicities of NaOGe according to the […]
The subject of another series is Rats (Wistar strain). In words: Acute toxicity of NaOGe in rats. The following applies: per os, female. It counts as in vivo.
Excerpt: as §1

A short description of series [2]: Acute toxicity of NaOGe in mice. It counts as in vivo, Mice (ICR strain). The following applies: mouse, in vivo, po; per os, male.
Excerpt: as §1

Another series deals with Mice (ICR strain). The experiment in a line: Acute toxicity of NaOGe in mice. The following applies: per os, female. It counts as in vivo.
Excerpt: as §1

Series [3] is described as follows: Effect of NaOGe on essential hypertension in human being. The series is classed as in vivo. The following applies: in words. How it is done:
Dr. A. Ishikawa, of our research group, has investigated the effect of NaOGe on essential hypertension in human being. The adminstration of 40-150 mg/body of NaOGe was divided orally in two or three doses. The duration of drug administration was at the least 1 month, at the most 12 months. The following results are obtained:
(§2) *Numbers showing good response / total numbers

A short description of series [4]: Effect of NaOGe on Diabetes Mellitus in human being. It counts as in vivo. The following applies: in words. How it is done:
The duration of drug administration was at the least 1 month, at the most 12 months. The following results are obtained:
as §2
Dr. A. Ishikawa of our research group has investigated the effect of NaOGe on Diabetes Millitus in human being. The administration of 40-150 mg/kg body of NaOGe was divided orally in two or three doses.

Series [5] can be described thus: Effect of NaOGe on development of amyloidosis in mice. It counts as in vivo, ICR strain mice. The following applies: in words. The method, then:
From the above results, it was presumed that OGe might act not only hypertension but some of metabolic changes related to aging. Thus, the influence of NaOGe on the development of amyloidosis in mice was tested. The ICR strain mice had been treated with oral administration of NaOGe for 22 months. After that, all mice were sacrificed and the development of amyloidosis in several important organs was investigated.

Another series concerns AH44. The experiment in a line: Effect on ascites hepatoma AH44 in rats. It counts as in vivo, Doryu rats. The following applies: 100mg/kg/day for 10 days, all control rats died. The method, then:
(§3) Dr. H. Sato, of our research group, investigated the antitumor effect of NaOGe by using several strains of ascites hepatoma in rats. For this investigation, the following […] strains of hepatoma were used: AH13, AH130, AH272, AH44, AH66F, AH7974, AH41C, AH60C and AH109A. 10^7 cells of each strain tumor were inoculated intravenously into the Doryu rats, 72 hours later, 100mg/kg/day of OGe was administered for 10 days.

Another series relates to AH66. The experiment in a line: Effect on ascites hepatoma AH66 in rats. It counts as in vivo, Doryu rats. The following applies: 100mg/kg/day for 10 days, all control rats died. How it is done:
as §3

The next series concerns ascites hepatoma. The experiment in a line: Direct cytocidal action of NaOGe. Also noted: species or system rats. The following applies: in words.
A short description of a further series: Clinical use: epilepsy. The series is classed as in vivo, patients. The method, then: A large amount therapy, 100-500mg/body/day in a dosis, is performed. […] In these points, the patients are humanly matured.
The next series can be described thus: Clinical use: depression. The series is classed as in vivo, patients. The following applies: about 100mg/body/day oral. An excerpt:
In moderate depression, about at the 8th day after drug administration, the improvement is observed.

The nature of series [6]: Clinical use: schizophrenia. It counts as in vivo, patients. The following applies: 200-300mg/body/day oral. How it is done:
The oral administration of 200mg/body/day ~ 300mg/body/day is necessary.

Series [7] can be described thus: Clinical use: loss of autonomic nervous system function. The series is classed as in vivo, patients.
The nature of another series: Clinical use: migrain. It counts as in vivo.
Series [8] is described as follows: Clinical use: peripheral neuritis. It counts as in vivo, patients. The following applies: 100mg/body/day.
The nature of series [9]: Clinical use: acceleration of heart function. The series is classed as in vivo, patients.
Series [10] can be described thus: Clinical use: improvement of peripheral circulation. The series is classed as in vivo, patient. The source says:
This is observed by plethysmography.

Series [11] can be described thus: Clinical use: digestive system. The series is classed as in vivo. An excerpt:
The effect is found clearly by X-ray examination.

Series [12] can be described thus: Clinical use: allergic diseases. It counts as in vivo, patients.
Series [13] is described as follows: Clinical use: kidney function. The following applies: in vivo.
The nature of series [14]: Clinical use: therapy of dysfunction liver (hepatitis). It counts as in vivo, patients. The method, then: In patients receiving 100mg/body/day of the drug, the improvement of alkali phosphatase, SGOT, SGPT, ASAC and α-GPT and abnormal fraction of serum-protein was observed.
A short description of series [15]: Clinical use: liver cirrhose. The series is classed as in vivo, patients. The following applies: 100-200mg/body/day.
Another series is described as follows: Clinical use: hepatoma. The following applies: in vivo.
The nature of series [16]: Clinical use: effect in obstetrics. It counts as in vivo, patients. The source says:
The drug is particularly-effective on various symptoms including morning sickness caused by pregnance.

The next series relates to infants. In words: Clinical use: infants. The series is classed as in vivo.
The nature of series [17]: Clinical use: protective effect of drug administration for long periods. It counts as in vivo. The following applies: 50mg/body/day administered with the others, long-term.
Series [18] in a line: Clinical use: general fatigue, malaise and asthenia. The series is classed as in vivo.
Series [19] relates to Spontaneously Hypertensive Rats. The experiment in a line: Effect of NaOGe on blood pressure of spontaneously hypertensive rats. It counts as in vivo, rats (SHR strain). The following applies: in words. The method, then: To investigate the effect of NaOGe on hypertension, 100mg/kg/day of sodium salt of OGe had been administered to spontaneously hypertensive rats (SHR strain) and estimated the change of blood pressure.

Where [20] appears, read: cadmium chloride 2.0 mg/kg iv alone, 8th day of gestation.
[21] abbreviates: 75mg/body/day, asthma bronchitis and chronic exanthema.

What is called LD50 is the dose expected to kill half of the subjects tested. The low end stands for greater toxicity, the high end for lower toxicity.

With `O=C([O-])C[CH2][Ge]([OH])([OH])[OH].[NH4+]` [Ammonium 3-trihydroxygermylpropionate], the hygroscopic property result in “Hygroscopic property” was “hydroscopic”.
As for `[Cl][Cd][Cl]` [Cadmium chloride], the teratogenic action entry in the series with golden hamster (2.0mg/kg intravenously, 8th day of gestation, in words) was “produces cleft palate, exencepalia, harelips and open-eye lid”. Moreover, in the series on golden hamster (setting [20]), the Living fetuses is listed as 4.9%, the Malformation is on record as 25.5% and the Resorbed embryos is given as 51.0%.
In turn, `O=C([O-])C[CH2][Ge]([OH])([OH])[OH].[Na+]` [NaOGe, Sodium 3-trihydroxygermylpropionate] gave an LD50 in series [1] above 10000 mg/kg. Further, the median lethal dose (LD50) result in the series with Rats (Wistar strain) was “over 10 g/kg”. In series [2], this molecule gave an LD50 above 10000 mg/kg. The median lethal dose (LD50) entry in the series on Mice (ICR strain) was “over 10 g/kg”. Besides, the “effect in treatment and prevention of essential hypertension” value in series [3] was “effective in the treatment and the prevention of essential hypertension”. The “effect on Diabetes Mellitus” value in series [4] was “effective on Diabetes Mellitus”. In addition, the development of amyloidosis result in [5] (30mg/kg/day) is reported as “a clear prevention of the development was observed”. Moreover, the development of amyloidosis entry in series [5] (300mg/kg/day) is on record as “completely inhibited the development of amyloidosis”. Moreover, in the series with AH44, the “treated rats showing a complete cure” value was “half”. Further, the “treated rats showing a complete cure” value with AH66 is recorded as “half”. Further, in the series on ascites hepatoma, the direct cytocidal action entry was “does not possess direct cytocidal action”. In the series “Clinical use: epilepsy” (100-500mg/body/day oral), the “EEG: epilepsy specific spike” value is reported as “the loss of epilepsy specific spike is found”, the “EEG: slow burst” value is listed as “the inhibition of slow burst is not observed”, the drowsiness entry is “complete lack of drowsiness” and the grade of convulsion entry was “becomes lighter”. For the same molecule, in the series “Clinical use: epilepsy” (100-500mg/body/day oral), the “interval of convulsion appearance” value is on record as “becomes gradually longer”; the “learning and working ability” value is “the improvement of learning -- and working -- ability is observed”. For the same molecule, the absence of symptoms entry in “Clinical use: epilepsy” (continued oral administration, 100-500mg/body/day) is recorded as “many patients did not show any symptom”. Moreover, in “Clinical use: depression”, the depressive status result was “improvement of depressive status”, the drowsiness result is recorded as “does not give any drowsiness” and the initiation of autonomy result is reported as “clearly observed after drug administration”. Also, in series [6], the hullucination result is “the disappearance of hullucination is accelerated”, the “self-recognization of the disease” value was “clearly found rather early after drug administration” and the working ability result is “The working ability is observed”. Also, the “effect in patients resistant to other drugs” value in series [7] (75mg/body/day oral) was “shows the effect on many patients showing resistance against any other drugs”. Also, in [7] (after drug administration), the “objective and functional abnormality of various organs controlled by autonomic nervous system” value is reported as “are not found after drug administration”. In the series “Clinical use: migrain” (75mg/body/day), the effect on migraine entry was “effective on migraine”. The “symptoms caused by brain-anemia” value in “Clinical use: migrain” (in vivo) is given as “shows the effect on the symptoms caused by brain-anemia”. In series [8], the “effect on peripheral neuritis” value is “become to enjoy normal daily life without serious pain”. Besides, in series [9] (75-150mg/body/day), the blood-stream entry is given as “increase of blood-stream”. Moreover, in series [9] (75-150mg/body/day, patients with blood-loss ECG symptom), the ECG pattern entry is recorded as “improvement of ECG pattern”. Besides, the effect on blood-vessels entry in series [9] (from the effect on the eye ground symptoms) is “stabilizing effect of blood-vessels”. Moreover, the “subcutaneous bleeding of legs and hands” value in [9] (old people) is listed as “inhibited”. Besides, the cold exanthema entry in series [10] (human, in vivo) was “protects the appearance of cold exanthema”. Also, the “peripheral circulating blood amount” value in [10] (single administration of 50 mg/body/day, plethysmography) is reported as “increase of peripheral circulating blood amount”. In series [11] (X-ray examination), the “subjective symptoms and ulcers” value was “loss of subjective symptoms and the cure of ulcers”. In addition, in [11] (in vivo), the effect on constipation result is reported as “effective on constipation”; the “movement of stomach and intestine” value was “modification of movement of stomach and intestine”. Also, the “effect compared with other therapy” value in [11] (ulcers) was “higher than any other therapy”. Also, the “condition 6 months to 1 year after drug administration” value in series [12] (75mg/body/day, 6 months to 1 year) was “many patients show a condition looking like a complete cure”. Also, in series [12] (setting [21]), the frequency of symptom-appearance result is listed as “decrease of the frequency of symptom-appearance”, the “interval of symptom appearance” value is “becomes longer” and the “use of adrenal cartex hormone” value is “decrease of adrenal cartex hormone or stop of the hormone”. The drug allergic reaction entry in series [12] (patients with drug allergy, given with an allergenic drug) was “any drug allergic reaction is not observed”. Moreover, in series [13], the appearance of proteiureia entry is recorded as “the appearance of proteiureia is inhibited” and the diuretic effect entry is “diuretic effect is observed”. Moreover, the “alkali phosphatase, SGOT, SGPT, ASAC and α-GPT and abnormal fraction of serum-protein” value in series [14] (100mg/body/day) is recorded as “improvement”. The “spontaneous cure of acute and chronic hepatitis” value in [14] (human, in vivo) is on record as “acceleration of the spontaneous cure”. In series [15], the ascites result is “beginning of the loss of ascites”, the liver function entry was “acceleration of the recovery of liver function” and the “progress of liver dysfunction” value is “stopped the progress of liver dysfunction”. The life span result in “Clinical use: hepatoma” is given as “increase of life span”. Also, in [16] (100-200mg/body/day), the “effect in serious patients indicated for artificial pregnance stopping” value was “effective one some serious patients”. For the same molecule, the “symptoms including morning sickness” value in series [16] (human, in vivo) was “particularly-effective”. Besides, the “actonic vomiting and autointoxication” value with infants (20 - 50 mg/body/day) is “effective on actonic vomiting and autointoxication of infants”. Also, the body weight result in the series with infants (100-200mg/body/day, infants showing decrease of body weight) is “increase”. In addition, the “side effects of tranquilizers and anti-tuberculosis drugs” value in [17] is given as “decrease of side effects”. Further, the “symptoms of general fatigue, malaise and asthenia” value in series [18] (75mg/body/day) is “loss of the symptoms of general fatigue, malaise and asthenia”. For the same molecule, the “symptoms due to neurosis” value in [18] (increase of dose to 75mg/body/day) is reported as “early the disappearance of the symptoms due to neurosis”. Also, the hygroscopic property result in the series “Hygroscopic property” is recorded as “hydroscopic”. For the same molecule, the “Malformation produced by cadmium chloride” value with golden hamster (NaOGe 40.0mg/kg, simultaneous intravenous injection, in words) was “prevented completely”.
Regarding `O=C(O)C[CH2][Ge]([OH])([OH])[OH]` [OGe, 3-trihydroxygermylpropionic acid], the “effect on hypertension in rats” value in series [19] is “highly effective on hypertension in rats and the effect appears gradually”.

These data come from patent US4066678A (priority 1975, dated 1978).
